# Reference: patent US20200270225A1, “Chiral Diacylhydrazine Ligands for Modulating the Expression of Exogenous Genes via an Ecdysone Receptor Complex” (Intrexon Corporation, priority 2007, published 2020)
# Where two headings read alike, the source gives them in different places.
# Assays:
# [1] = molecular target: wild-type Choristoneura fumiferana EcR (D, E and F domains) (Choristoneura fumiferana, UniProt O77240); assay type: cell-based; settings: WT-CtEcR, 3T3 Cells; for RMFI (relative maximum fold induction): relative to GS-E ligand
# Method: (§1) Cellular gene switch assays were performed by transiently transfecting the following constructs in mouse embryonic fibroblast cells (NIH3T3). The wild-type D, E and F domains from Choristoneura fumiferana EcR or its V390I/Y410E/E274V mutant were fused to GAL4-DBD and placed under the control of the CMV promoter in the pBIND vector (Promega Corporation, Madison, Wis., USA). The DEF domains of EcRs shown were amplified using primers designed based on 20-25 nt sequences at the 5′ and 3′ ends. Restriction enzyme sites EcoR I/BamH I and Xba I were added to 5′ and 3′ primers respectively. The PCR products were digested with appropriate restriction enzymes and cloned into pBIND vector. The EcR LBDs cloned into pBIND vector were verified by sequencing. A chimeric RXR from Homo sapiens RXRP and Locusta migratoria RXR, fused to VP16-AD and placed under the control of an SV40e promoter, was constructed as previously described (Kumar P & Katakam A in Gene Transfer, Friedmann T and Rossi J, eds, pp. 643-651 (2007), Cold Spring Harbor Laboratory Press, Cold Spring Harbor, N.Y.). The inducible luciferase reporter plasmid pFRLuc (Stratagene Cloning Systems, La Jolla, Calif., USA), contains five copies of the GAL4 response element and a synthetic minimal promoter.
# (§2) NIH3T3 cells were maintained at 37′C and 5% CO2 in Dulbecco's modified Eagle's medium (DMEM) supplemented with 10% bovine calf serum, both obtained from Mediatech Inc., Manassas, Va. Cells were planted in a 96-well plate at a density of 2,500 cells/well in 50 μL of growth medium. The following day cells were first treated with 35 μL of serum-free DMEM containing dimethyl sulfoxide (DMSO; control) or a DMSO solution containing ligand. Cells were then transfected with 15 μl of serum-free DMEM containing 0.04 μg of EcR construct, 0.04 ug of RXR construct, and 0.16 μg of luciferase reporter construct per well, using SuperFect™ transfection reagent (Qiagen Inc., Valencia, Calif., USA) according to the manufacturer's instructions. Ligands were tested at 8 doses from 0.01-33 μM and the final DMSO concentration was 0.33% in both control and treatment wells. After a 48 hour post-treatment and transfection incubation, the cells were assayed for luciferase activity using the Bright-Glo™ Luciferase Assay System (Promega Corporation, Madison, Wis., USA) following the manufacturer's instructions. EC50 values were measured minimally in duplicate.
# (§3) Luciferase reporter gene expression was measured 48 h after cell treatment using Bright-Glo™ Luciferase Assay System from Promega (E2650). Luminescence was detected at room temperature using a Dynex MLX microtiter plate luminometer.
# (§4) Each assay was conducted in two separate wells, and the two values were averaged. Fold inductions were calculated by dividing relative light units (“RLU”) in ligand treated cells with RLU in DMSO treated cells. EC50s were calculated from dose response data using a three-parameter logistic model. Relative Max FI was determined as the maximum fold induction of the tested ligand (an embodiment of the invention) observed at any concentration relative to the maximum fold induction of GS™-E ligand (3,5-dimethyl-benzoic acid N-tert-butyl-N′-(2-ethyl-3-methoxy-benzoyl)-hydrazide) observed at any concentration.
# [2] = molecular target: T1, [V390I/Y410E/E274V]-CfEcR (Choristoneura fumiferana, UniProt O77240); assay type: cell-based; settings: 3T3 Cells; for RMFI (relative maximum fold induction): relative to GS-E ligand
# T1 construct: assay construct b835
# Method: as §1, §2, §3, §4
smiles,measurement,setting,value
CCCC(N(NC(=O)c1cccc(OC)c1CC)C(=O)c1cc(C)cc(C)c1)C(C)(C)C (racemic) [rac-2],EC50,"[1]; rac, read-out: EC50",~100 nM
same,RMFI (relative maximum fold induction),[1]; rac,0.60
same,EC50,"[2]; rac, read-out: EC50",3.9 nM
same,RMFI (relative maximum fold induction),[2]; rac,0.85
CCCC(N(NC(=O)c1c(Cl)cccc1Cl)C(=O)c1cc(C)cc(C)c1)C(C)(C)C (racemic) [rac-3],EC50,"[1]; rac, read-out: EC50",100 nM
same,EC50,"[2]; rac, read-out: EC50",12.2 nM
same,RMFI (relative maximum fold induction),[2]; rac,0.97
CCCC(N(NC(=O)c1ccccc1OC)C(=O)c1cc(C)cc(C)c1)C(C)(C)C (racemic) [rac-4],EC50,"[1]; rac, read-out: EC50",~2000 nM
same,RMFI (relative maximum fold induction),[1]; rac,0.32
same,EC50,"[2]; rac, read-out: EC50",~300 nM
same,RMFI (relative maximum fold induction),[2]; rac,0.72
CCCC(N(NC(=O)c1ccccc1F)C(=O)c1cc(C)cc(C)c1)C(C)(C)C (racemic) [rac-5],EC50,"[1]; rac, read-out: EC50",81 nM
same,RMFI (relative maximum fold induction),[1]; rac,0.59
same,EC50,"[2]; rac, read-out: EC50",1.1 nM
same,RMFI (relative maximum fold induction),[2]; rac,0.67
CCCC(N(NC(=O)c1ccccc1Cl)C(=O)c1cc(C)cc(C)c1)C(C)(C)C (racemic) [rac-6],EC50,"[1]; rac, read-out: EC50",59 nM
same,RMFI (relative maximum fold induction),[1]; rac,0.72
same,EC50,"[2]; rac, read-out: EC50",1.2 nM
same,RMFI (relative maximum fold induction),[2]; rac,0.95
CCCC(N(NC(=O)c1ccccc1Br)C(=O)c1cc(C)cc(C)c1)C(C)(C)C (racemic) [rac-7],EC50,"[1]; rac, read-out: EC50",86 nM
same,RMFI (relative maximum fold induction),[1]; rac,0.63
same,EC50,"[2]; rac, read-out: EC50",~3 nM
same,RMFI (relative maximum fold induction),[2]; rac,1.28
CCCC(N(NC(=O)c1cccc(C)c1)C(=O)c1cc(C)cc(C)c1)C(C)(C)C (racemic) [rac-8],EC50,"[1]; rac, read-out: EC50",193 nM
same,RMFI (relative maximum fold induction),[1]; rac,0.88
same,EC50,"[2]; rac, read-out: EC50",16.2 nM
same,RMFI (relative maximum fold induction),[2]; rac,0.86
CCCC(N(NC(=O)c1cccc(OC)c1)C(=O)c1cc(C)cc(C)c1)C(C)(C)C (racemic) [rac-9],EC50,"[1]; rac, read-out: EC50",304 nM
same,RMFI (relative maximum fold induction),[1]; rac,0.84
same,EC50,"[2]; rac, read-out: EC50",7.1 nM
same,RMFI (relative maximum fold induction),[2]; rac,0.63
CCCC(N(NC(=O)c1cccc(Cl)c1)C(=O)c1cc(C)cc(C)c1)C(C)(C)C (racemic) [rac-10],EC50,"[1]; rac, read-out: EC50",~100 nM
same,RMFI (relative maximum fold induction),[1]; rac,0.50
same,EC50,"[2]; rac, read-out: EC50",23.9 nM
same,RMFI (relative maximum fold induction),[2]; rac,0.86
CCCC(N(NC(=O)c1ccc(C)cc1)C(=O)c1cc(C)cc(C)c1)C(C)(C)C (racemic) [rac-11],EC50,"[1]; rac, read-out: EC50",89 nM
same,RMFI (relative maximum fold induction),[1]; rac,0.66
same,EC50,"[2]; rac, read-out: EC50",6.3 nM
same,RMFI (relative maximum fold induction),[2]; rac,0.73
CCCC(N(NC(=O)c1ccc(CC)cc1)C(=O)c1cc(C)cc(C)c1)C(C)(C)C (racemic) [rac-12],EC50,"[1]; rac, read-out: EC50",~20 nM
same,RMFI (relative maximum fold induction),[1]; rac,0.79
same,EC50,"[2]; rac, read-out: EC50",~0.6 nM
same,RMFI (relative maximum fold induction),[2]; rac,0.96
CCCC(N(NC(=O)c1ccc(OC)cc1)C(=O)c1cc(C)cc(C)c1)C(C)(C)C (racemic) [rac-13],EC50,"[1]; rac, read-out: EC50",~100 nM
same,RMFI (relative maximum fold induction),[1]; rac,0.54
same,EC50,"[2]; rac, read-out: EC50",~5 nM
same,RMFI (relative maximum fold induction),[2]; rac,0.71
CCCC(N(NC(=O)c1ccc(Cl)cc1)C(=O)c1cc(C)cc(C)c1)C(C)(C)C (racemic) [rac-14],EC50,"[1]; rac, read-out: EC50",~200 nM
same,RMFI (relative maximum fold induction),[1]; rac,0.46
same,EC50,"[2]; rac, read-out: EC50",~20 nM
same,RMFI (relative maximum fold induction),[2]; rac,0.83
CCCC(N(NC(=O)c1c(F)cccc1F)C(=O)c1cc(C)cc(C)c1)C(C)(C)C (racemic) [rac-15],EC50,"[1]; rac, read-out: EC50",94 nM
same,RMFI (relative maximum fold induction),[1]; rac,0.68
same,EC50,"[2]; rac, read-out: EC50",~1 nM
same,RMFI (relative maximum fold induction),[2]; rac,0.92
"CCCC(N(NC(=O)c1c(Cl)cccc1Cl)C(=O)c1cc(C)cc(C)c1)C(C)(C)C (racemic) [rac-16, rac-3,5-dimethyl-benzoic acid N-(1-tert-butyl-butyl)-N′-(2,6-dichloro-benzoyl)-hydrazide]",EC50,[1]; rac,~300 nM
same,RMFI (relative maximum fold induction),[1]; rac,0.43
same,EC50,[2]; rac,~30 nM
same,RMFI (relative maximum fold induction),[2]; rac,0.73
CCCC(N(NC(=O)c1ccc(OC)c(OC)c1)C(=O)c1cc(C)cc(C)c1)C(C)(C)C (racemic) [rac-17],EC50,"[1]; rac, read-out: EC50",4130 nM
same,RMFI (relative maximum fold induction),[1]; rac,0.25
same,EC50,"[2]; rac, read-out: EC50",720 nM
same,RMFI (relative maximum fold induction),[2]; rac,0.51
CCCC(N(NC(=O)c1cc(F)cc(F)c1)C(=O)c1cc(C)cc(C)c1)C(C)(C)C (racemic) [rac-18],EC50,"[1]; rac, read-out: EC50",30.5 nM
same,RMFI (relative maximum fold induction),[1]; rac,0.26
same,EC50,"[2]; rac, read-out: EC50",~3 nM
same,RMFI (relative maximum fold induction),[2]; rac,1.00
CCCC(N(NC(=O)c1cc(OC)c(C)c(OC)c1)C(=O)c1cc(C)cc(C)c1)C(C)(C)C (racemic) [rac-19],EC50,"[1]; rac, read-out: EC50",> 10000 nM
same,EC50,"[2]; rac, read-out: EC50",3930 nM
same,RMFI (relative maximum fold induction),[2]; rac,0.15
CCCC(N(NC(=O)c1ccc2c(c1C)OCO2)C(=O)c1cc(C)cc(C)c1)C(C)(C)C (racemic) [rac-20],EC50,"[1]; rac, read-out: EC50",99.3 nM
same,RMFI (relative maximum fold induction),[1]; rac,0.90
same,EC50,"[2]; rac, read-out: EC50",12.1 nM
same,RMFI (relative maximum fold induction),[2]; rac,0.92
CCCC(N(NC(=O)c1ccc2c(c1C)OCCO2)C(=O)c1cc(C)cc(C)c1)C(C)(C)C (racemic) [rac-21],EC50,"[1]; rac, read-out: EC50",1.32 nM
same,RMFI (relative maximum fold induction),[1]; rac,0.86
same,EC50,"[2]; rac, read-out: EC50",~0.1 nM
same,RMFI (relative maximum fold induction),[2]; rac,0.85
CCCC(N(NC(=O)c1ccc2c(c1CC)OCCO2)C(=O)c1cc(C)cc(C)c1)C(C)(C)C (racemic) [rac-22],EC50,"[1]; rac, read-out: EC50",0.499 nM
same,RMFI (relative maximum fold induction),[1]; rac,0.88
same,EC50,"[2]; rac, read-out: EC50",0.059 nM
same,RMFI (relative maximum fold induction),[2]; rac,0.79
CCCC(N(NC(=O)c1cccc2ccccc12)C(=O)c1cc(C)cc(C)c1)C(C)(C)C (racemic) [rac-23],EC50,"[1]; rac, read-out: EC50",521 nM
same,RMFI (relative maximum fold induction),[1]; rac,0.60
same,EC50,"[2]; rac, read-out: EC50",66 nM
same,RMFI (relative maximum fold induction),[2]; rac,0.84
CCCC(N(NC(=O)c1ccc2ccccc2c1)C(=O)c1cc(C)cc(C)c1)C(C)(C)C (racemic) [rac-24],EC50,"[1]; rac, read-out: EC50",~500 nM
same,RMFI (relative maximum fold induction),[1]; rac,0.44
same,EC50,"[2]; rac, read-out: EC50",61 nM
same,RMFI (relative maximum fold induction),[2]; rac,0.62
CCCC(N(NC(=O)c1cccs1)C(=O)c1cc(C)cc(C)c1)C(C)(C)C (racemic) [rac-25],EC50,"[1]; rac, read-out: EC50",3160 nM
same,RMFI (relative maximum fold induction),[1]; rac,0.52
same,EC50,"[2]; rac, read-out: EC50",172 nM
same,RMFI (relative maximum fold induction),[2]; rac,0.89
CCCC(N(NC(=O)c1cc(C)oc1C)C(=O)c1cc(C)cc(C)c1)C(C)(C)C (racemic) [rac-26],EC50,"[1]; rac, read-out: EC50",2140 nM
same,RMFI (relative maximum fold induction),[1]; rac,0.76
same,EC50,"[2]; rac, read-out: EC50",84 nM
same,RMFI (relative maximum fold induction),[2]; rac,0.97
CCCC(N(NC(=O)c1ccc(Cl)nc1)C(=O)c1cc(C)cc(C)c1)C(C)(C)C (racemic) [rac-28],EC50,"[1]; rac, read-out: EC50",470 nM
same,RMFI (relative maximum fold induction),[1]; rac,0.70
same,EC50,"[2]; rac, read-out: EC50",47 nM
same,RMFI (relative maximum fold induction),[2]; rac,0.68
CCCC(N(NC(=O)c1cccc(OC)c1C)C(=O)c1cc(C)cc(C)c1)C(C)(C)C (racemic) [rac-29],EC50,"[1]; rac, read-out: EC50",3.88 nM
same,RMFI (relative maximum fold induction),[1]; rac,0.98
same,EC50,"[2]; rac, read-out: EC50",0.15 nM
same,RMFI (relative maximum fold induction),[2]; rac,0.77
"CCCC(N(NC(=O)OC(C)(C)C)C(=O)c1cc(C)cc(C)c1)C(C)(C)C (racemic) [rac-49, rac-N′-(1-tert-Butyl-butyl)-N′-(3,5-dimethyl-benzoyl)-hydrazinecarboxylic acid tert-butyl ester]",EC50,[1]; rac,> 33000 nM
same,RMFI (relative maximum fold induction),[1]; rac,0.02
same,EC50,[2]; rac,~4000 nM
same,RMFI (relative maximum fold induction),[2]; rac,0.50
"CCC[C@H](N(NC(=O)c1ccc(Cl)nc1)C(=O)c1cc(C)cc(C)c1)C(C)(C)C [Example 46, (S)-3,5-Dimethyl-benzoic acid N-(1-tert-butyl-butyl)-N′-(6-chloro-pyridine-3-carbonyl)-hydrazide]",EC50,[2]; S,3990 nM
same,RMFI (relative maximum fold induction),[2]; S,0.42
CCC[C@H](N(NC(=O)c1ccc2ccccc2c1)C(=O)c1cc(C)cc(C)c1)C(C)(C)C [Example S-24],EC50,"[1]; S, read-out: EC50",5380 nM
same,RMFI (relative maximum fold induction),[1]; S,0.13
